Laboratory results from patent US20200055839A1 (priority 2017, published 2020).

What follows are molecules tested on NL-RLuc virus (assay: Inhibition of HIV replication (NL-RLuc virus, luciferase readout in MT-2 cells)). Settings: Human immunodeficiency virus 1, MT2, 120 h, MT-2 cells infected with NL-RLuc virus, 5 days of incubation, 10% FBS, at least 2 experiments.
Type: cell-based
Method in brief: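 EC50 derived via median effect equation from at least 2 experiments, using luciferase expression as virus-growth readout. Replication-competent NL-RLuc reporter virus (nef partly replaced by Renilla luciferase) infected MT-2 cells with serial compound dilutions; 5-day incubation in RPMI 1640 plus 10% FBS.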

Structure (SMILES) | EC50
Cc1ncc(-c2ccc(OCCc3cc(F)cc(F)c3)cn2)c(N2CCC(C)(C)CC2)c1[C@H](OC(C)(C)C)C(=O)O [Example 323, (2S)-2-(tert-butoxy)-2-{5-[2-(3,5-difluorophenyl)ethoxy]-4′-(4,4-dimethylpiperidin-1-yl)-6′-methyl-[2,3′-bipyridine]-5′-yl}acetic acid] | 1 nM
CCCOc1ccc(CCOc2ccc(-c3cnc(C)c([C@H](OC(C)(C)C)C(=O)O)c3N3CCC(C)(C)CC3)nc2)cc1 [Example 325, (2S)-2-(tert-butoxy)-2-[4′-(4,4-dimethylpiperidin-1-yl)-6′-methyl-5-[2-(4-propoxyphenyl)ethoxy]-[2,3′-bipyridine]-5′-yl]acetic acid] | 3 nM
CCCCCCCOc1ccc(-c2cnc(C)c([C@H](OC(C)(C)C)C(=O)O)c2N2CCC(C)(C)CC2)nc1 [Example 326, (2S)-2-(tert-butoxy)-2-[4′-(4,4-dimethylpiperidin-1-yl)-5-(heptyloxy)-6′-methyl-[2,3′-bipyridine]-5′-yl]acetic acid] | 3 nM
Cc1ncc(-c2ccc(OCCc3c(F)cccc3F)cn2)c(N2CCC(C)(C)CC2)c1[C@H](OC(C)(C)C)C(=O)O [Example 327, (2S)-2-(tert-butoxy)-2-{5-[2-(2,6-difluorophenyl)ethoxy]-4′-(4,4-dimethylpiperidin-1-yl)-6′-methyl-[2,3′-bipyridine]-5′-yl}acetic acid] | 5 nM
Cc1ncc(-c2ccc(OCCc3cccc(F)c3F)cn2)c(N2CCC(C)(C)CC2)c1[C@H](OC(C)(C)C)C(=O)O [Example 329, (2S)-2-(tert-butoxy)-2-{5-[2-(2,3-difluorophenyl)ethoxy]-4′-(4,4-dimethylpiperidin-1-yl)-6′-methyl-[2,3′-bipyridine]-5′-yl}acetic acid] | 0.5 nM
COc1ccc(CCOc2ccc(-c3cnc(C)c([C@H](OC(C)(C)C)C(=O)O)c3N3CCC(C)(C)CC3)nc2)cc1F [Example 330, (2S)-2-(tert-butoxy)-2-[4′-(4,4-dimethylpiperidin-1-yl)-5-[2-(3-fluoro-4-methoxyphenyl)ethoxy]-6′-methyl-[2,3′-bipyridine]-5′-yl]acetic acid] | 0.4 nM
Cc1ccc(CCOc2ccc(-c3cnc(C)c([C@H](OC(C)(C)C)C(=O)O)c3N3CCC(C)(C)CC3)nc2)cc1Cl [Example 331, (2S)-2-(tert-butoxy)-2-{5-[2-(3-chloro-4-methylphenyl)ethoxy]-4′-(4,4-dimethylpiperidin-1-yl)-6′-methyl-[2,3′-bipyridine]-5′-yl}acetic acid] | 0.5 nM
Cc1ccc(CCOc2ccc(-c3cnc(C)c([C@H](OC(C)(C)C)C(=O)O)c3N3CCC(C)(C)CC3)nc2)cc1F [Example 332, (2S)-2-(tert-butoxy)-2-[4′-(4,4-dimethylpiperidin-1-yl)-5-[2-(3-fluoro-4-methylphenyl)ethoxy]-6′-methyl-[2,3′-bipyridine]-5′-yl]acetic acid] | 0.5 nM
CCCCCCOc1ccc(-c2cnc(C)c([C@H](OC(C)(C)C)C(=O)O)c2N2CCC(C)(C)CC2)nc1 [Example 334, (2S)-2-(tert-butoxy)-2-[4′-(4,4-dimethylpiperidin-1-yl)-5-(hexyloxy)-6′-methyl-[2,3′-bipyridine]-5′-yl]acetic acid] | 4 nM
Cc1ncc(-c2ccc(OCc3ccccc3Cl)cn2)c(N2CCC(C)(C)CC2)c1[C@H](OC(C)(C)C)C(=O)O [Example 336, (2S)-2-(tert-butoxy)-2-{5-[(2-chlorophenyl)methoxy]-4′-(4,4-dimethylpiperidin-1-yl)-6′-methyl-[2,3′-bipyridine]-5′-yl}acetic acid] | 2 nM
Cc1ncc(-c2ccc(OCc3cccc(Cl)c3)cn2)c(N2CCC(C)(C)CC2)c1[C@H](OC(C)(C)C)C(=O)O [Example 337, (2S)-2-(tert-butoxy)-2-{5-[(3-chlorophenyl)methoxy]-4′-(4,4-dimethylpiperidin-1-yl)-6′-methyl-[2,3′-bipyridine]-5′-yl}acetic acid] | 2 nM
Cc1ncc(-c2ccc(OCc3ccc(Cl)cc3)cn2)c(N2CCC(C)(C)CC2)c1[C@H](OC(C)(C)C)C(=O)O [Example 338, (2S)-2-(tert-butoxy)-2-{5-[(4-chlorophenyl)methoxy]-4′-(4,4-dimethylpiperidin-1-yl)-6′-methyl-[2,3′-bipyridine]-5′-yl}acetic acid] | 1 nM
COc1ccc(COc2ccc(-c3cnc(C)c([C@H](OC(C)(C)C)C(=O)O)c3N3CCC(C)(C)CC3)nc2)cc1 [Example 339, (2S)-2-(tert-butoxy)-2-[4′-(4,4-dimethylpiperidin-1-yl)-5-[(4-methoxyphenyl)methoxy]-6′-methyl-[2,3′-bipyridine]-5′-yl]acetic acid] | 2 nM
COc1cccc(COc2ccc(-c3cnc(C)c([C@H](OC(C)(C)C)C(=O)O)c3N3CCC(C)(C)CC3)nc2)c1 [Example 340, (2S)-2-(tert-butoxy)-2-[4′-(4,4-dimethylpiperidin-1-yl)-5-[(3-methoxyphenyl)methoxy]-6′-methyl-[2,3′-bipyridine]-5′-yl]acetic acid] | 2 nM
Cc1ncc(-c2ccc(OCCCCc3ccccc3)cn2)c(N2CCC(C)(C)CC2)c1[C@H](OC(C)(C)C)C(=O)O [Example 341, (2S)-2-(tert-butoxy)-2-[4′-(4,4-dimethylpiperidin-1-yl)-6′-methyl-5-(4-phenylbutoxy)-[2,3′-bipyridine]-5′-yl]acetic acid] | 3 nM
Cc1ccc(COc2ccc(-c3cnc(C)c([C@H](OC(C)(C)C)C(=O)O)c3N3CCC(C)(C)CC3)nc2)cc1 [Example 342, (2S)-2-(tert-butoxy)-2-[4′-(4,4-dimethylpiperidin-1-yl)-6′-methyl-5-[(4-methylphenyl)methoxy]-[2,3′-bipyridine]-5′-yl]acetic acid] | 2 nM
Cc1ncc(-c2ccc(OCc3cccc(F)c3)cn2)c(N2CCC(C)(C)CC2)c1[C@H](OC(C)(C)C)C(=O)O [Example 343, (2S)-2-(tert-butoxy)-2-[4′-(4,4-dimethylpiperidin-1-yl)-5-[(3-fluorophenyl)methoxy]-6′-methyl-[2,3′-bipyridine]-5′-yl]acetic acid] | 2 nM
Cc1ncc(-c2ccc(OCc3ccc(F)cc3)cn2)c(N2CCC(C)(C)CC2)c1[C@H](OC(C)(C)C)C(=O)O [Example 344, (2S)-2-(tert-butoxy)-2-[4′-(4,4-dimethylpiperidin-1-yl)-5-[(4-fluorophenyl)methoxy]-6′-methyl-[2,3′-bipyridine]-5′-yl]acetic acid] | 2 nM
Cc1ncc(-c2ccc(OCCCC(C)C)cn2)c(N2CCC(C)(C)CC2)c1[C@H](OC(C)(C)C)C(=O)O [Example 345, (2S)-2-(tert-butoxy)-2-[4′-(4,4-dimethylpiperidin-1-yl)-6′-methyl-5-[(4-methylpentyl)oxy]-[2,3′-bipyridine]-5′-yl]acetic acid] | 2 nM
Cc1ccccc1COc1ccc(-c2cnc(C)c([C@H](OC(C)(C)C)C(=O)O)c2N2CCC(C)(C)CC2)nc1 [Example 346, (2S)-2-(tert-butoxy)-2-[4′-(4,4-dimethylpiperidin-1-yl)-6′-methyl-5-[(2-methylphenyl)methoxy]-[2,3′-bipyridine]-5′-yl]acetic acid] | 5 nM
Cc1cccc(COc2ccc(-c3cnc(C)c([C@H](OC(C)(C)C)C(=O)O)c3N3CCC(C)(C)CC3)nc2)c1 [Example 347, (2S)-2-(tert-butoxy)-2-[4′-(4,4-dimethylpiperidin-1-yl)-6′-methyl-5-[(3-methylphenyl)methoxy]-[2,3′-bipyridine]-5′-yl]acetic acid] | 1 nM
Cc1ncc(-c2ccc(OCc3ccccc3F)cn2)c(N2CCC(C)(C)CC2)c1[C@H](OC(C)(C)C)C(=O)O [Example 348, (2S)-2-(tert-butoxy)-2-[4′-(4,4-dimethylpiperidin-1-yl)-5-[(2-fluorophenyl)methoxy]-6′-methyl-[2,3′-bipyridine]-5′-yl]acetic acid] | 0.6 nM
Cc1ncc(-c2ccc(O[C@@H](C)c3ccccc3)cn2)c(N2CCC(C)(C)CC2)c1[C@H](OC(C)(C)C)C(=O)O [Example 349, (2S)-2-(tert-butoxy)-2-[4′-(4,4-dimethylpiperidin-1-yl)-6′-methyl-5-[(1S)-1-phenylethoxy]-[2,3′-bipyridine]-5′-yl]acetic acid] | 1 nM
Cc1ncc(-c2ccc(O[C@H](C)c3ccccc3)cn2)c(N2CCC(C)(C)CC2)c1[C@H](OC(C)(C)C)C(=O)O [Example 350, (2S)-2-(tert-butoxy)-2-[4′-(4,4-dimethylpiperidin-1-yl)-6′-methyl-5-[(1R)-1-phenylethoxy]-[2,3′-bipyridine]-5′-yl]acetic acid] | 3 nM
Cc1ncc(-c2ccc(OCCCC(C)(C)C)cn2)c(N2CCC(C)(C)CC2)c1[C@H](OC(C)(C)C)C(=O)O [Example 351, (2S)-2-(tert-butoxy)-2-{5-[(4,4-dimethylpentyl)oxy]-4′-(4,4-dimethylpiperidin-1-yl)-6′-methyl-[2,3′-bipyridine]-5′-yl}acetic acid] | 0.8 nM
Cc1ncc(-c2ccc(OCCc3cc(F)c(F)cc3F)cn2)c(N2CCC(C)(C)CC2)c1[C@H](OC(C)(C)C)C(=O)O [Example 353, (2S)-2-(tert-butoxy)-2-[4′-(4,4-dimethylpiperidin-1-yl)-6′-methyl-5-[2-(2,4,5-trifluorophenyl)ethoxy]-[2,3′-bipyridine]-5′-yl]acetic acid] | 0.8 nM
Cc1ncc(-c2ccc(OCCc3cccc(Cl)c3F)cn2)c(N2CCC(C)(C)CC2)c1[C@H](OC(C)(C)C)C(=O)O [Example 354, (2S)-2-(tert-butoxy)-2-{5-[2-(3-chloro-2-fluorophenyl)ethoxy]-4′-(4,4-dimethylpiperidin-1-yl)-6′-methyl-[2,3′-bipyridine]-5′-yl}acetic acid] | 0.5 nM
Cc1ncc(-c2ccc(OCc3c(Cl)cccc3Cl)cn2)c(N2CCC(C)(C)CC2)c1[C@H](OC(C)(C)C)C(=O)O [Example 355, (2S)-2-(tert-butoxy)-2-{5-[(2,6-dichlorophenyl)methoxy]-4′-(4,4-dimethylpiperidin-1-yl)-6′-methyl-[2,3′-bipyridine]-5′-yl}acetic acid] | 1 nM
